In patent US11261193B2, “Morphic forms of G1T38 and methods of manufacture thereof” (G1 Therapeutics, Inc., priority 2017, dated 2022):
In brackets after ≈: the same amount, converted by molar mass. Entries after “also recorded” stand apart in the source; their conditions may differ. Read-outs that look alike come from different tables or passages of the source.

Key:
[1] = Stability study under thermal stress (oven at 60° C. for 7 days); assay type: physicochemical; conditions: for XRPD pattern / stability after thermal stress: 60° C. for 7 days
Method: Forms A, B, and D were stored in an oven maintained at 60° C. for 7 days.

[2] = Dynamic vapor sorption (moisture sorption) experiment; assay type: physicochemical; conditions: for XRPD (post DVS): form by XRPD after moisture sorption, sample dried at 60° C. and 0% RH; for % wt change at 60% RH: moisture adsorbed at 60% RH; for % wt change at 90% RH: moisture adsorbed at 90% RH
[3] = Twelve-month stability study at 25° C./60% RH; assay type: physicochemical; conditions: for Appearance / HPLC Purity / Moisture (%) / XRPD: 25° C./60% RH
Method: (§1) Form B was stored at 25° C./60% RH for twelve months and at 40° C./75% RH for six months.

[4] = TG-IR experiment monitoring potential release of hydrogen chloride; assay type: physicochemical; conditions: heated at 20° C./minute to approximately 140° C.; listed as pure Form B
Method: Thermogravimetric infrared (TG-IR) analysis was performed on a TA Instruments Q5000 IR thermogravimetric (TG) analyzer interfaced to a Magna-IR 560® Fourier transform infrared (FT-IR) spectrophotometer (Thermo Nicolet) equipped with an Ever-Glo mid/far IR source, a potassium bromide (KBr) beamsplitter, and a mercury cadmium telluride (MCT-A) detector. The FT-IR wavelength verification was performed using polystyrene, and the TG calibration standards were nickel and Alumel™. The sample was placed in a platinum sample pan and the pan was inserted into the TG furnace. The TG instrument was started first, immediately followed by the FT-IR instrument. The TG instrument was operated under a flow of helium at 90 and 10 cc/minute for the purge and balance, respectively. The furnace was heated under helium at a rate of 20° C./minute to a final temperature of approximately 140° C. IR spectra were collected approximately every 32 seconds for approximately 7.5 minutes. Each IR spectrum represents 32 co-added scans collected at a spectral resolution of 4 cm-1. Volatiles were identified from a search of the High Resolution Nicolet Vapor Phase spectral library. […]

[5] = Six-month stability study at 40° C./75% RH; assay type: physicochemical
Method: as §1

RB phosphorylation = conditions: in vitro and in vivo; cited from earlier work
[6] = system: CDK4/6-dependent tumorigenic cell lines including breast, melanoma, leukemia, and lymphoma cells; conditions: variety of CDK4/6-dependent tumorigenic cell lines; cited from earlier work
[7] = Phase 1a toxicity trial in 75 women; assay type: in vivo, human
[8] = Solubility estimate by aliquot addition with visual observation; assay type: physicochemical; conditions: thermodynamic from solid
Method: Solubility estimates of impure Form B were attempted in various predominantly HCl acidic aqueous acetone solvent mixtures using an aliquot addition method that involved visual observation. Aliquots of various solvents or diluent/organic solvent mixtures were added to measured amounts of impure Form B with agitation (typically sonication) at ambient temperature until complete dissolution was achieved, as judged by visual observation. Solubilities were calculated based on the total solvent used to give a solution; actual solubilities may be greater because of the volume of solvent portions utilized or a slow rate of dissolution. […] If dissolution occurred at the first aliquot, the value was reported as “>”. Due to the haziness of the obtained samples, effective solubility estimates were difficult to discern.

SMILES: CC(C)N1CCN(c2ccc(Nc3ncc4cc5n(c4n3)C3(CCCCC3)CNC5=O)nc2)CC1 [Form A]
- XRPD pattern / stability after thermal stress [1]: A new pattern; also recorded: converted to a new Form
- XRPD after equilibrium at room temperature ([1]; three further days at room temperature after 60° C. for 7 days): converted back to Form A; also recorded: changed back to Form A
- stability in the moisture sorption experiment [2]: unstable; also recorded: not stable
- XRPD (post DVS) [2]: Form K
- % wt change at 60% RH [2]: 14.9 wt %
- % wt change at 90% RH [2]: 15.8 wt %

SMILES: CC(C)N1CCN(c2ccc(Nc3ncc4cc5n(c4n3)C3(CCCCC3)CNC5=O)nc2)CC1 [Form B]
- XRPD pattern / stability after thermal stress [1]: stable; also recorded: No change; also recorded: remained unchanged
- time stable in long-term stability study ([3]; 25° C. and 60% relative humidity): at least 1 year
- Appearance ([3]; 0 M): Yellow
- HPLC Purity ([3]; 0 M): 99.5%
- Moisture (%) ([3]; 0 M): 4.9%
- XRPD ([3]; 0 M): Form B
- Appearance ([3]; 3 M): Yellow solid
- HPLC Purity ([3]; 3 M): 99.5%
- Moisture (%) ([3]; 3 M): 4.07%
- Appearance ([3]; 6 M): Yellow
- HPLC Purity ([3]; 6 M): 99.5%
- Moisture (%) ([3]; 6 M): 7.53%
- Appearance ([3]; 9 M): Yellow solid
- HPLC Purity ([3]; 9 M): 99.6%
- Moisture (%) ([3]; 9 M): 7.29%
- Appearance ([3]; 12 M): Yellow
- HPLC Purity ([3]; 12 M): 99.5%
- Moisture (%) ([3]; 12 M): 7.48%
- XRPD ([3]; 12 M): conformed to the reference spectrum; also recorded: Form B
- volatiles released during TG-IR [4]: only water, and no hydrogen chloride, was released
- Appearance ([5]; 0 M): Yellow solid
- HPLC Purity ([5]; 0 M): 99.5%
- Moisture (%) ([5]; 0 M): 4.9%
- XRPD ([5]; 0 M): Form B
- Appearance ([5]; 1 M): Yellow solid
- HPLC Purity ([5]; 1 M): 99.5%
- Moisture (%) ([5]; 1 M): 2.75%
- Appearance ([5]; 3 M): Yellow solid
- HPLC Purity ([5]; 3 M): 99.5%
- Moisture (%) ([5]; 3 M): 7.47%
- XRPD ([5]; 3 M): Form B
- Appearance ([5]; 6 M): Yellow solid
- HPLC Purity ([5]; 6 M): 99.5%
- Moisture (%) ([5]; 6 M): 7.53%
- XRPD ([5]; 6 M): conformed to the reference spectrum; also recorded: Form B
- stability in the moisture sorption experiment [2]: stable
- XRPD (post DVS) [2]: remained in Form B; also recorded: remained unchanged as Form B
- % wt change at 60% RH [2]: 5.8 wt %
- % wt change at 90% RH [2]: 5.9 wt %

SMILES: CC(C)N1CCN(c2ccc(Nc3ncc4cc5n(c4n3)C3(CCCCC3)CNC5=O)nc2)CC1 [Form C]
- XRPD pattern / stability after thermal stress [1]: remained unchanged

SMILES: CC(C)N1CCN(c2ccc(Nc3ncc4cc5n(c4n3)C3(CCCCC3)CNC5=O)nc2)CC1 [Form D]
- XRPD pattern / stability after thermal stress [1]: No change
- stability in the moisture sorption experiment [2]: unstable; also recorded: not stable
- XRPD (post DVS) [2]: Form K
- % wt change at 60% RH [2]: 4.4 wt %

SMILES: CC(C)N1CCN(c2ccc(Nc3ncc4cc5n(c4n3)C3(CCCCC3)CNC5=O)nc2)CC1 [Form G1T38, 2′-((5-(4-isopropylpiperazin-1-yl)pyridin-2-yl)amino)-7′,8′-dihydro-6′H-spiro[cyclohexane-1,9′-pyrazino[1′,2′:1,5]pyrrolo[2,3-d]pyrimidin]-6′-one]
- inhibition of RB phosphorylation (RB phosphorylation): inhibits RB phosphorylation
- inhibition of cell proliferation [6]: induces inhibition of cell proliferation
- tolerability [7]: well tolerated with no significant adverse events

SMILES: CC(C)N1CCN(c2ccc(Nc3ncc4cc5n(c4n3)C3(CCCCC3)CNC5=O)nc2)CC1 [Impure Form B]
- solubility ([8]; aqueous buffer, 2.0M HCl, ambient, read-out: Solubility): 4000 µg/mL (≈ 8.43 mM)
- solubility ([8]; aqueous buffer, 5.0M HCl, ambient, read-out: Solubility): 3000 µg/mL (≈ 6.32 mM)
- solubility ([8]; aqueous buffer, 5.0M HCl:water 1:2, ambient, read-out: Solubility): 7000 µg/mL (≈ 14.7 mM)
- solubility ([8]; aqueous with cosolvent or surfactant or cyclodextrin, 1M HCl:acetone 50:50, ambient, read-out: Solubility): 4000 µg/mL (≈ 8.43 mM)
- solubility ([8]; aqueous with cosolvent or surfactant or cyclodextrin, 1M HCl:acetone 60:40, ambient, read-out: Solubility): 4000 µg/mL (≈ 8.43 mM)
- solubility ([8]; aqueous with cosolvent or surfactant or cyclodextrin, 1M HCl:acetone 67:33, ambient, read-out: Solubility): 6000 µg/mL (≈ 12.6 mM)
- solubility ([8]; aqueous with cosolvent or surfactant or cyclodextrin, 1.0M HCl:acetone 75:25, ambient, read-out: Solubility): 7000 µg/mL (≈ 14.7 mM)
- solubility ([8]; aqueous with cosolvent or surfactant or cyclodextrin, predominantly HCl acidic aqueous acetone solvent mixtures, ambient temperature, read-out: solubility in the tested solvent mixtures): 3000 to 7000 µg/mL (≈ 6.32 to 14.7 mM)
- solubility ([8]; organic solvent or mixture, 0.1M HCl:acetone 20:80, ambient, read-out: Solubility): < 1000 µg/mL
- solubility ([8]; organic solvent or mixture, 0.5M HCl:acetone 10:90, ambient, read-out: Solubility): < 1000 µg/mL
- solubility ([8]; organic solvent or mixture, 0.5M HCl:acetone 20:80, ambient, read-out: Solubility): < 1000 µg/mL
- solubility ([8]; organic solvent or mixture, 1M HCl:acetone 5:95, ambient, read-out: Solubility): < 1000 µg/mL
- solubility ([8]; organic solvent or mixture, 1M HCl:acetone 10:90, ambient, read-out: Solubility): < 1000 µg/mL
- solubility ([8]; organic solvent or mixture, 1M HCl:acetone 20:80, ambient, read-out: Solubility): < 1000 µg/mL
- solubility ([8]; organic solvent or mixture, 1M HCl:acetone 33:67, ambient, read-out: Solubility): 2000 µg/mL (≈ 4.21 mM)
- solubility ([8]; organic solvent or mixture, Water:acetone 1:2, ambient, read-out: Solubility): 3000 µg/mL (≈ 6.32 mM)
- solubility ([8]; Water, ambient, read-out: Solubility): < 7000 µg/mL
- solubility ([8]; water:acetone 3:1, aqueous with cosolvent or surfactant or cyclodextrin, Water:cetone 3:1, ambient, read-out: Solubility): < 3000 µg/mL
